According to patent US20150157568A1, “Treatment of Spasticity with Intrathecal Dantrolene” (Allergan, Inc., priority 2013, published 2015):

System: awake spastic rats
Assay: Spastic rat model (EMG activity during ankle dorsiflexion after spinal cord ischemia)
Format: in vivo, Sprague-Dawley rats
Protocol: FIG. 2 describes the rat spasticity model. (A,B) Electromyogram (EMG) responses (recorded from the gastrocnemius muscle) from an awake, but restrained normal and representative spastic rat when the ankle is rotated at velocity of (40°/3 sec) using a computer-controlled ankle rotational device. The presence of spasticity is identified by the appearance of burst EMG activity (active EMG). (C) To calculate the percent of inhibition of spastic muscle activity by a test agent during ankle dorsiflexion, animals were anaesthetized with isoflurane at the end of the experiment and the magnitude of active EMG during ankle dorsiflexion measured under isoflurane anaesthesia is then used as the maximum possible effect and is defined in each spastic animal. All drug treatment data generated after treatment are then normalized in using the maximum effect seen under isoflurane anaesthesia.
Animal: Male Sprague-Dawley rats (approximately 350 gram body weight) were used in the assay. The rats were housed at room temperature (65-82° F.) and relative humidity within the range between 30 to 70%. The room will be illuminated with fluorescent lighting on a daily 12 hour light/dark cycle. All animals will have free access to dry food. Municipal water will be freely available.
Spasticity development and measurement: Rats were exposed to transient spinal cord ischemia by aortic balloon occlusion for 10-12 minutes. Animals with fully developed spasticity will be selected at 4-8 weeks after ischemic injury and prepared for spasticity measurement. Presence of spasticity will be defined by increased peripheral muscle resistance measured during computer-controlled ankle dorsiflexion and correlative changes in EMG (electromyography) activity measured in gastrocnemius muscle (see FIG. 2).
An increased EMG activity induced by ankle dorsiflexion is a consistent and reliable measure of spasticity. Before administration of dantrolene, baseline EMG measurements were conducted. Animals with identified spasticity were then assigned to the experimental groups to be treated with dantrolene or vehicle through intraperitoneal and intrathecal routes.
Intraperitoneal dosing: Three different doses (5, 15, 50 mg/kg) of dantrolene and vehicle were injected intraperitoneally (6 rats per treatment/dose). After dantrolene administration, correlative changes in EMG were recorded at 15, 30, 60, 90, and 120 minutes following intraperitoneal injection. Changes in baseline EMG activity and ankle-rotation evoked EMG activity were then analyzed and the efficacy of treatment on spasticity calculated.
Intrathecal dosing: Animals with identified spasticity were implanted intrathecally with a fine plastic (e.g., PE-10) catheter for bolus drug delivery. Two to three days after intrathecal catheter implantation, the baseline spasticity response was measured and animals were then injected IT with dantrolene (250 μg, 6 rats) and spasticity response was measured for 2 hrs. In control animals (6 rats) vehicle was injected only.

[1] = intraperitoneal (IP), 50 mg/kg, single injection, awake spastic rats

Row | SMILES | effect on spastic activity (positive control, maximal anti-spastic effect) (isoflurane anesthesia at the end of the experiment, defined as 0%) | effect of systemic administration on spastic activity (intraperitoneal (IP) injection, 5, 15, 50 mg/kg, awake spastic rats) | spastic activity, % of the pre-treatment level (intraperitoneal (IP), 50 mg/kg, single injection, highest dose tested, awake spastic rats) | duration of reduction of spastic activity [1] | reduction of spastic activity [1] | anti-spastic effect of intrathecal administration (intrathecal (IT), single 250 μg bolus injection, awake spastic rats (n=6), at least as robust as 50 mg/kg systemic)
1 | FC(F)OC(Cl)C(F)(F)F (stereo not drawn) [Isoflurane] | virtually eliminated all spastic activity |  |  |  |  | 
2 | O=C1CN(/N=C/c2ccc(-c3ccc([N+](=O)[O-])cc3)o2)C(O)=N1 [dantrolene] |  | reduces spastic activity in the awake spastic rats in a dose dependent manner | about 30% | at least 2 hours | 70% | potent anti-spastic effect
